Test system: Primary Human Subcutaneous Preadipocytes
Assay type: cell-based
Conditions: 2.5 ug/mL
Experimental: Quantification of adipogenesis is evaluated with AdipoRed™ Adipogenesis Assay Reagent (Lonza). The increase of the accumulation of lipids is determined by measuring the fluorescence signal of Nile Red in primary human Primary Human Subcutaneous Preadipocytes after treatment with exopolysaccharide produced by the strain of Halomonas eurihalina species with deposit number LMG P-28571 obtained in accordance with example 1 in Adipocyte Differentiation Medium. Cells treated with Adipocyte Differentiation Medium alone are used as a basal control. Human preadipocytes (from a donor) (ZENBIO) are seeded (13,000 cells/well, 5 wells per condition) in 96-clear well plates in Preadipocyte Growth Medium (ZENBIO). The cells are incubated for 24 hours at 37° C. in a water-saturated atmosphere of 95% air and 5% CO2. […] In the basal control, preadipocytes are treated with the Adipocyte Differentiation Medium only. As a negative control, preadipocytes are treated with the Adipocyte Differentiation Medium and caffeine. Quantification of the accumulation of lipids is carried out by AdipoRed™ reagent (LONZA) assay. […] The percentage of normalized lipid accumulation compared with the basal control is calculated.

Cn1c(=O)c2c(ncn2C)n(C)c1=O [Caffeine, caffeine]
% Lipid accumulation vs basal control: 87.50%

— patent publication US10413501B2, “Cosmetic composition containing halomonas ferment extract, and use thereof” (LUBRIZOL ADVANCED MATERIALS, INC., priority 2014, dated 2019)
